Data on one molecule can be found in patent publication US20240317755A1, “HETEROCYCLIC COMPOUND, AND INTERMEDIATE THEREOF, PREPARATION METHOD THEREFOR AND USE THEREOF” (WUHAN LL SCIENCE AND TECHNOLOGY DEVELOPMENT CO., LTD., priority 2021, published 2024).

One data set has as its target TRPC5 channel (Homo sapiens (Human), UniProt Q9UL62). The data set can be described thus: TRPC5 calcium flux assay (Fluo-4, FLIPR) in TRPC5-HEK 293 cells. The class given is cell-based. The conditions noted are these: 0.3 nM Englerin A. The procedure: TRPC5 is a type of non-selective cation channel with permeability to calcium ions. […] Fluo-4 AM fluorescence dye was used to indirectly reflect the effect of the compound on TRPC5 channel by detecting intracellular Ca^2+ in TRPC5-HEK 293 cells.
• Revival solution: 100% high glucose DMEM • Selection medium: high glucose DMEM+10% FBS+1% P/S+1% HEPES+Blasticidin (5 μg/mL)+Hygromycine (50 μg/mL) • Induction medium: high glucose DMEM+10% FBS+1% P/S+1% HEPES+Doxycycline (1 μg/mL)
14 hours before the real-time fluorescence experiment, cells were washed with PBS and digested with trypsin-EDTA. Cells were diluted to 200,000 cells/mL with induction medium and seeded onto a 96-well black wall bottom transparent plate coated with poly-D-lysine (PDL) (stock solution of 10 mg/mL, final concentration of 10 μg/mL) at 100 μL/well, i.e., 20,000 cells/well.
500 mL of external solution for detecting TRPC5 calcium signals: 4.0908 g of NaCl, 0.1864 g of KCl, 0.111 g of CaCl2, 0.0476 g of MgCl2, 0.9 g of glucose, 1.1915 g of HEPES (2-[4-(2-hydroxyethyl)piperazin-1-yl]ethanesulfonic acid).
Calcium fluorescent dye: an external solution for detecting TRPC5 calcium signals containing Fluo-4 with a final concentration of 4 μM (containing 0.5% BSA)
Positive inhibitor concentration: 100 nM
The dose-effect diagram was used to calculate AUC (area under the curve of the curve formed by the calcium flux signal), and the data and the log of the compound concentration were collected. The IC50 value was calculated using log[Inhibitor] vs. response Variable slope.
TRPC5 is a type of non-selective cation channel with permeability to calcium ions. […] Fluo-4 AM fluorescence dye was used to indirectly reflect the effect of the compound on TRPC5 channel by detecting intracellular […] in TRPC5-HEK 293 cells.
1. Cell culture 1.1 Revival of TRPC5-HEK 293 cells • Revival solution: 100% high glucose DMEM • Selection medium: high glucose DMEM+10% FBS+1% P/S+1% HEPES+Blasticidin (5 μg/mL)+Hygromycine (50 μg/mL) • Induction medium: high glucose DMEM+10% FBS+1% P/S+1% HEPES+Doxycycline (1 μg/mL)
14 hours before the real-time fluorescence experiment, cells were washed with PBS and digested with trypsin-EDTA (TE). Cells were diluted to 200,000 cells/mL with induction medium and seeded onto a 96-well black wall bottom transparent plate coated with poly-D-lysine (PDL) (stock solution of 10 mg/mL, final concentration of 10 μg/mL) at 100 μL/well, i.e., 20,000 cells/well.

Data set [1] is described as follows: Liver microsome half-life assay, human. The conditions noted are these: human, liver microsomes; 1 mg/mL liver microsomal protein, 37° C.; read-out: Liver microsome T½ (min) Human. It counts as in vitro ADME. The procedure:
(§1) The in vitro metabolic stability of the compounds of the present disclosure was determined using warm incubation method of liver microsomes in various species. A proper amount of test compound was added to the liver microsomal reaction system (1 mg/mL liver microsomal protein, 25 U/mL glucose-6-phosphate dehydrogenase, 1 mM NADP, 6 mM D-glucose 6-phosphate, 5 mM MgCl2), and the reaction was started by warm incubation in a water bath at 37° C., then 100 μL of the reaction mixture at each time point was added to a centrifuge tube containing 400 μL of internal standard working solution precooled at 0° C. (containing a solution of 200 ng/mL dexamethasone, diclofenac, tolbutamide, and labetalol in acetonitrile), then the reaction was terminated, centrifuged at 4° C. and 10,000 g for 10 min, and the supernatant was taken into LC-MS for analysis and detection to obtain in vitro metabolic half-lives of the test compounds in liver microsomes of various species.

The nature of data set [2]: Liver microsome half-life assay, mouse. It counts as in vitro ADME. The conditions noted are these: liver microsomes, 1 mg/mL liver microsomal protein, 37° C., read-out: Liver microsome T½ (min) Mouse. The procedure:
as §1

The nature of data set [3]: Pharmacokinetic study in mice in vivo (gavage and tail vein injection). The conditions noted are these: for AUC(0-t) / Cmax: dose 1 mg/kg. The source says: […] Mouse plasma was collected at a specific time point after administration, and the concentration of the compound in plasma was detected by LC-MS/MS (AB SCIEX Qtrap4500). PK parameters of each compound (WinNonlin V5.2, Pharsight) were statistically analyzed and calculated to reflect the pharmacokinetic properties of the compounds of the present disclosure in mice in vivo.

Like-named read-outs stand apart in the source and are kept apart here.

TRPC5 channel, sequence (Q9UL62 whole entry): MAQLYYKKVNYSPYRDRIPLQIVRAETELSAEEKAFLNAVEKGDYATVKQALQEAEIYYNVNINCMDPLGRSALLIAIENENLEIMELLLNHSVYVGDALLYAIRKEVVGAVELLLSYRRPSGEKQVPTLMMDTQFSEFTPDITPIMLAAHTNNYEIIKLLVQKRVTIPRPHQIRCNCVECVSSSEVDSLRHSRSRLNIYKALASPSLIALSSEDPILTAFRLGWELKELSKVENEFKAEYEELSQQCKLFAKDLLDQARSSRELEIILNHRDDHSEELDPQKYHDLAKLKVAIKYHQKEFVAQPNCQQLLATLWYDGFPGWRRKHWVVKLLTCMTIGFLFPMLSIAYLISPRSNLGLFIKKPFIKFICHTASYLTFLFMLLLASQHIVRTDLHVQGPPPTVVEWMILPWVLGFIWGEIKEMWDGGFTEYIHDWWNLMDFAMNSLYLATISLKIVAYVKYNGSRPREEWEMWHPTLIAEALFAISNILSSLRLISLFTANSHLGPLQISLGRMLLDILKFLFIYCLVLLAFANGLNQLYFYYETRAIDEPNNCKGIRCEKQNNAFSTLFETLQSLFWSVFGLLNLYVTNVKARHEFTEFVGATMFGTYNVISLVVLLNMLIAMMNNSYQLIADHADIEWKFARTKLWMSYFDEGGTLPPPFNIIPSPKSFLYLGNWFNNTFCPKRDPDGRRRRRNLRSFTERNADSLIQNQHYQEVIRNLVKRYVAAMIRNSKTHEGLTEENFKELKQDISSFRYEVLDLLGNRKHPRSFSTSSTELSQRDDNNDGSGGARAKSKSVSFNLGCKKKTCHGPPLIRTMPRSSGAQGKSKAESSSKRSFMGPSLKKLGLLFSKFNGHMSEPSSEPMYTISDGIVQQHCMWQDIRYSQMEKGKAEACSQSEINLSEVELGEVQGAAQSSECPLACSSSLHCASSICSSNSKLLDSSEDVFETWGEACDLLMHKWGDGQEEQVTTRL

For `O=C(c1ccc(F)cc1C(F)(F)F)c1cnc2n1CCN(c1cn[nH]c(=O)c1Cl)C2` [Compound 1-6, 4-chloro-5-(3-(4-fluoro-2-(trifluoromethyl)benzoyl)-5,6-dihydroimidazo[1,2-a]pyrazin-7(8H)-yl)pyridazin-3(2H)-one], the IC50 was 11.5 nM on TRPC5 channel (Table 1, read-out: TRPC5 inhibitory activity, IC50) and 11.5 nM at TRPC5 channel (Table 11, read-out: TRPC5 inhibitory activity, IC50). Also, the half-life in data set [1] stood at 531 min; in data set [2], 78 min. Also, the AUC(0-t) turned out to be 1860 ng·h/mL in data set [3] (mouse, plasma, iv) and 1240 ng·h/mL in data set [3] (mouse, plasma, po). Further, the Cmax in data set [3] (mouse, plasma, iv) turned out to be 1110 ng/mL; in data set [3] (mouse, plasma, po), 422 ng/mL. Besides, the bioavailability in data set [3] (mouse, plasma, po, 1 mg/kg, p.o. vs i.v.) was 66.8%. The “time of peak plasma concentration” value in data set [3] (oral administration, 10 mg/kg, previous PK results) was found to be 1 h.
